According to publication PMC9655118, “Identification of Novel Cyanopyridones and Pyrido[2,3-d]pyrimidines as Anticancer Agents with Dual VEGFR-2/HER-2 Inhibitory Action: Synthesis, Biological Evaluation and Molecular Docking Studies” (Pharmaceuticals, 2022):
In brackets after ≈: the same amount, converted by molar mass. Several values for one entry are separate records, joined by “and”; a condition that tells them apart may be missing. Identical values can stand only once.

Columns and labels:
[1] = tested on: MCF-7 cell line; experiment: MTT cytotoxicity assay, MCF-7; assay type: cell-based; details: Homo sapiens, MCF7, 48 h, mean ± S.D. of three experiments, 50% growth inhibition
Protocol: (§1) The MTT colorimetric assay is a very sensitive method used to measure the potential cytotoxicity (loss of viable cells) of targeted compounds. […] The drug taxol was used as the reference standard. Cell morphological changes were recorded to determine the cytotoxic effect, and the results are found in Table 1, Figure 3.
(§2) In vitro testing was performed on HepG2 and MCF-7 cell lines to determine the antitumor activity of the newly synthesized chemical compounds. Both cell lines originally came from Egypt’s National Cancer Institute (NCI), housed at Cairo University. At 37 °C with 5% […], the cells were grown in RPMI 1640 containing 10% fetal bovine serum, 50 micrograms per milliliter of streptomycin, and 100 international units per milliliter of penicillin. After trypsinization with 0.05% trypsin-EDTA, cell growth and morphology were evaluated, and passages were made when cells reached 80–90% confluence.
(§3) The MTT assay protocol is described in the Supplementary Materials.
(§4) The MTT assay was used to determine the effects of the newly synthesized compounds on cell viability. In a nutshell, 1 × 10^4 cells/well were seeded in a 96-well plate and allowed to grow for 24 hours. After 24 hours, the original medium was discarded, and a new compounds-containing medium was added. After 48 hours, the media was changed out and 100 μL of MTT (10 μL from (MTT) stock solution (5 mg/ml in PBS) in 100 μL media) was added to each well, and the plates were incubated at 37° C for 4 hours. After adding 100 μL of acidified isopropanol to each well, the formed formazan crystals were dissolved, and the absorbance was read at 570 nm using an ELISA microplate reader (Epoc-2C micro-plate reader, Bio Tek, VT, USA). There were three separate runs of every experiment. Half-maximal inhibitory concentrations (IC50) were determined by fitting sigmoidal dose-response curves.
(§5) GraphPad Prism 8.0 (San Diego, CA, USA) analyzed all results. All results (three independent experiments) were shown as means ± standard deviation. The significance of the differences in the outcomes of all groups was examined using ANOVA and Tukey’s

[2] = tested on: HepG2 cell line; experiment: MTT cytotoxicity assay, HepG2; assay type: cell-based; details: Homo sapiens, 48 h, mean ± S.D. of three experiments, 50% growth inhibition
Protocol: as §1, §2, §3, §4, §5

[3] = molecular target: T1, VEGFR-2 (Homo sapiens, UniProt P35968); experiment: In vitro VEGFR-2 inhibition assay; assay type: biochemical; details: mean of three replicates ± S.D.
T1 construct: Effects of compounds 5e and 5a on VEGFR-2 and HER2 (µM) in MCF-7 cells compared to control; endogenous in cells; host or cells: MCF-7
Protocol: (§6) Assessment was performed using a VEGFR-2 (human) SimpleStep ELISA kit (ab213476) and HER-2 (human) SimpleStep ELISA kit (ab100510) (abcam® Cambridge, CB2 0AX, Cambridge, UK) according to manufacturer instructions. In brief, tissue culture supernatant was added to the anti-tag antibody-coated wells, followed by the secondary antibody mix. To remove unbound material, the wells were washed after incubation. […] The final step in the transformation from blue to yellow was the addition of a stop solution, which halted the reaction. The intensity of the signal generated at 450 nm was proportional to the amount of bound analyte.

[4] = molecular target: T2, HER-2 (Homo sapiens, UniProt P04626); experiment: In vitro HER-2 inhibition assay; assay type: biochemical; details: mean of three replicates ± S.D.
T2 construct: Effects of compounds 5e and 5a on VEGFR-2 and HER2 (µM) in MCF-7 cells compared to control; endogenous in cells; host or cells: MCF-7
Protocol: as §6

[5] = tested on: VEGFR-2; experiment: VEGFR-2 expression level in MCF-7 cells (ELISA); assay type: cell-based, human; details: untreated control 1573.00 ± 36.9
Protocol: (§7) In this study, we further explored the impact of cyanopyridones 5a and 5e on VEGFR-2 and HER-2 expression levels in MCF-7 cells (Figure 5). The results disclosed that both 5a and 5e had interesting profiles for reduction of VEGFR-2/HER-2 expression levels compared to the control cells and the reference drug taxol.
as §6

[6] = tested on: HER-2; experiment: HER-2 expression level in MCF-7 cells (ELISA); assay type: cell-based, human; details: untreated control 559.00 ± 33.9
Protocol: as §7, §6

[7] = tested on: HER-2; parameters: method as in doi:10.1039/C5MD00602C; details: reported by Pfizer; cited from earlier work
[8] = tested on: MCF-7 breast cancer; parameters: method as in PMID 26729087; details: cited from earlier work
[9] = tested on: NCI-H460 non-small cell lung cancer; parameters: method as in PMID 26729087; details: cited from earlier work
[10] = tested on: SF-268 CNS cancer; parameters: method as in PMID 26729087; details: cited from earlier work

T2 sequence (P04626 23-1255): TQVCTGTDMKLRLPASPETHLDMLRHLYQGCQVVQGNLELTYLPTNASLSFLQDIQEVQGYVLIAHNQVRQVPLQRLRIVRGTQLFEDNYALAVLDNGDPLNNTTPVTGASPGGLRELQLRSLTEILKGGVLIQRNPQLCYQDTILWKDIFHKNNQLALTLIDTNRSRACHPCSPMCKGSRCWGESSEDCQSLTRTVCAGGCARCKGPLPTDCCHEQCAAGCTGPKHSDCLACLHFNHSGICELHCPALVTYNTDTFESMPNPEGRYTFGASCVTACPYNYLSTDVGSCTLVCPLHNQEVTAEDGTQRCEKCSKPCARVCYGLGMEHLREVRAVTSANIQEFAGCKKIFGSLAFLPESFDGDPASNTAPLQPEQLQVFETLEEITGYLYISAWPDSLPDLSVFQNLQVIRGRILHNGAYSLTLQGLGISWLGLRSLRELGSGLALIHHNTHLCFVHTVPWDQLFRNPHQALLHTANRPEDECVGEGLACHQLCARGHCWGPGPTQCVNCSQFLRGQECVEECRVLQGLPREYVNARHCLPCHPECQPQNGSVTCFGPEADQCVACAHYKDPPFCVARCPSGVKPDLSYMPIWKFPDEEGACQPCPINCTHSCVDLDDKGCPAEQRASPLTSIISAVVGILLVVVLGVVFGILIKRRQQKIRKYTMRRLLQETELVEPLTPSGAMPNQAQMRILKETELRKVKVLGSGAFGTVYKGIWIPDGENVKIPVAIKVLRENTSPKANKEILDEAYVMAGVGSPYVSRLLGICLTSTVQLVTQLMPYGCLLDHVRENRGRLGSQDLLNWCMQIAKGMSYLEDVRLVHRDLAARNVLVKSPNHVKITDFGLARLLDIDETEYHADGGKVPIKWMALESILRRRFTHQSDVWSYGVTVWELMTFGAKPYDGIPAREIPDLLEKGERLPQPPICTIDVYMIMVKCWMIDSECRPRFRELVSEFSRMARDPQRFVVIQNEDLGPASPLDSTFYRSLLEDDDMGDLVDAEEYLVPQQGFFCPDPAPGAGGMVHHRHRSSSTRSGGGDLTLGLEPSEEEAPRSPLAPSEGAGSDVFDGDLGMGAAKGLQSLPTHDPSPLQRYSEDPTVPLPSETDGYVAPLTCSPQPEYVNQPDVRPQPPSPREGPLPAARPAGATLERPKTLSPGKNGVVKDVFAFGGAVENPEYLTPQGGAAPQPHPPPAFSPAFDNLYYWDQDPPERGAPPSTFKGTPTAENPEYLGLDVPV
T1 sequence (P35968 20-1356): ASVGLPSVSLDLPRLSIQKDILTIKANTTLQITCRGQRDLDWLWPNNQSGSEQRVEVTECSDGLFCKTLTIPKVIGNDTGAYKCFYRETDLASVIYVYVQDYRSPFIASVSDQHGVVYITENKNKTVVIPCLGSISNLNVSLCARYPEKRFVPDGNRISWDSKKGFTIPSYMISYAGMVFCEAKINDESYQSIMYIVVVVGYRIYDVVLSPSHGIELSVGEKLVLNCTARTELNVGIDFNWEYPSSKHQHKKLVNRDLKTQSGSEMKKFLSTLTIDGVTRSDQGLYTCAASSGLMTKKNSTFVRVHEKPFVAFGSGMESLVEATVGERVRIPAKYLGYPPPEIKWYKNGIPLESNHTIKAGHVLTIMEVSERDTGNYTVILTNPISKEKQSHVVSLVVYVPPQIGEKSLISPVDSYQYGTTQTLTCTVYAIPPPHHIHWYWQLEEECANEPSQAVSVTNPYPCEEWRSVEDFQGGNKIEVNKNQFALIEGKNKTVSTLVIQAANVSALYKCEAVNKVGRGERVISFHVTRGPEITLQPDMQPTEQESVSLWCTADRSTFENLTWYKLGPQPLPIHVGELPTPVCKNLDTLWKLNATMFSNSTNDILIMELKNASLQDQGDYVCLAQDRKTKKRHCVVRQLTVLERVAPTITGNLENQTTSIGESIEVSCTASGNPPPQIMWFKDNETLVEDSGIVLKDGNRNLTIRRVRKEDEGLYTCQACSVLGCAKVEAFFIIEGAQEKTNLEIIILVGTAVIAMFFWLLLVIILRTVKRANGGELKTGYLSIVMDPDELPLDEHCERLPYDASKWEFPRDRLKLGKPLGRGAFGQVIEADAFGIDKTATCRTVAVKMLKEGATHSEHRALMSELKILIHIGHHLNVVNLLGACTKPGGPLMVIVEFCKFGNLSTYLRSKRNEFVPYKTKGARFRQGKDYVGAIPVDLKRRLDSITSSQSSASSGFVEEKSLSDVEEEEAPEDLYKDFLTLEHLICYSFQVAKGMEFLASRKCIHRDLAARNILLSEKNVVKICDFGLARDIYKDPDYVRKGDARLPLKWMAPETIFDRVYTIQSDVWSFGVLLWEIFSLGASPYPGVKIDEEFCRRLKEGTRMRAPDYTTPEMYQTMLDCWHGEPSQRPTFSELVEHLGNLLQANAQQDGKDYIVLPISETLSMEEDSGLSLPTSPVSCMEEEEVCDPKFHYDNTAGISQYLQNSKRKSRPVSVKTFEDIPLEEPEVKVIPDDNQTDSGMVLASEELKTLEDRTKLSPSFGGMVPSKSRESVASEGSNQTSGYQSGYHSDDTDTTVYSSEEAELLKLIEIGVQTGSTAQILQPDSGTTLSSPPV

Compound	IC50 [1] [µM]	IC50 [2] [µM]	melting point [°C]	further results
CC(=O)Oc1ccc(-c2c(C#N)c(=O)n(-c3cccc(C(F)(F)F)c3)c3nc(C)[nH]c(=O)c23)cc1 [Compound 7d]	43.4 ± 2.35	52.5 ± 2.84	320 to 322	
Cc1nc2c(c(-c3ccccc3)c(C#N)c(=O)n2-c2cccc(C(F)(F)F)c2)c(=O)[nH]1 [Compound 7a]	10.7 ± 0.58	16.3 ± 0.88	308 to 310	
N#Cc1c(-c2ccc([N+](=O)[O-])cc2)c(C#N)c(=O)n(-c2cccc(C(F)(F)F)c2)c1N [Compound 5c]	20.2 ± 1.09	4.01 ± 0.22	229 to 230	
N#Cc1c(-c2ccccc2)c(C#N)c(=O)n(-c2cccc(C(F)(F)F)c2)c1N [Compound 5a]	1.77 ± 0.1	2.71 ± 0.15	280 to 282	IC50 [3]: 0.217 ± 0.02 µM; IC50 [4]: 0.168 ± 0.009 µM; VEGFR-2 (pg/mL) expression level [5]: 884.30 pg/mL and 884.30 ± 29.3 pg/mL; HER-2 (pg/mL) expression level [6]: 299.50 pg/mL and 299.50 ± 4.7 pg/mL
COc1cc(-c2c(C#N)c(=O)n(-c3cccc(C(F)(F)F)c3)c3nc(C)[nH]c(=O)c23)cc(OC)c1OC [Compound 7e]	27.8 ± 1.5	71.9 ± 3.88	150 to 152	
N#Cc1c(-c2ccc(O)cc2)c(C#N)c(=O)n(-c2cccc(C(F)(F)F)c2)c1N [Compound 5b]	24.7 ± 1.33	11.4 ± 0.61	330 to 332	
Cc1nc2c(c(-c3ccc(Cl)cc3Cl)c(C#N)c(=O)n2-c2cccc(C(F)(F)F)c2)c(=O)[nH]1 [Compound 7c]	9.28 ± 0.5	5.04 ± 0.27	333 to 335	
N#Cc1c(-c2ccc(Cl)cc2)c2c(=O)[nH]cnc2n(-c2cccc(C(F)(F)F)c2)c1=O [Compound 6b]	14 ± 0.76	2.68 ± 0.14	350 to 352	
COC(=O)NCC#Cc1ccc2ncnc(Nc3ccc(Oc4cccc(C)n4)c(C)c3)c2c1 [V]				anti-HER-2 activity [7]: lower than 42 nM
N#Cc1c(-c2ccc(Cl)cc2)c(C#N)c(=O)n(-c2cccc(C(F)(F)F)c2)c1N [Compound 5d]	13.7 ± 0.74	22.5 ± 1.22	324 to 326	
N#Cc1c(-c2ccc(O)cc2)c2c(=O)[nH]cnc2n(-c2cccc(C(F)(F)F)c2)c1=O [Compound 6a]		7.27 ± 0.39	300 to 302	
CC(=O)O[C@H]1C(=O)[C@@]2(C)[C@H]([C@H](OC(=O)c3ccccc3)[C@]3(O)C[C@H](OC(=O)[C@H](O)[C@@H](NC(=O)c4ccccc4)c4ccccc4)C(C)=C1C3(C)C)[C@]1(OC(C)=O)CO[C@@H]1C[C@@H]2O [Taxol, paclitaxel, reference compound]	8.48 ± 0.46	14.6 ± 0.79		VEGFR-2 (pg/mL) expression level [5]: 660.10 ± 31.4 pg/mL; HER-2 (pg/mL) expression level [6]: 199.10 ± 8.6 pg/mL
CCC(=O)COc1nc(-c2cc(Cl)ccc2Cl)cc(-c2ccc(F)cc2)c1C#N [III]				IC50 cell growth inhibition, MCF-7 [8]: 0.02 µg/mL (≈ 0.0466 µM); IC50 cell growth inhibition, NCI-H460 [9]: 0.01 µg/mL (≈ 0.0233 µM); IC50 cell growth inhibition, SF-268 [10]: 0.02 µg/mL (≈ 0.0466 µM)
Cc1nc2c(c(-c3ccc(Cl)cc3)c(C#N)c(=O)n2-c2cccc(C(F)(F)F)c2)c(=O)[nH]1 [Compound 7b]	6.22 ± 0.34	19.6 ± 1.06	330 to 332	
N#Cc1c(-c2ccc(Cl)cc2Cl)c(C#N)c(=O)n(-c2cccc(C(F)(F)F)c2)c1N [Compound 5e]	1.39 ± 0.08	10.7 ± 0.58	239 to 241	IC50 [3]: 0.124 ± 0.011 µM; IC50 [4]: 0.077 ± 0.003 µM; VEGFR-2 (pg/mL) expression level [5]: 510.00 pg/mL and 510.00 ± 20.2 pg/mL; HER-2 (pg/mL) expression level [6]: 148.60 pg/mL and 148.60 ± 5.5 pg/mL
COc1cc(-c2c(C#N)c(N)n(-c3cccc(C(F)(F)F)c3)c(=O)c2C#N)cc(OC)c1OC [Compound 5f]	54.2 ± 2.93	40.6 ± 2.19	195 to 197	
